Measurements from the NIST ThermoML archive (doi:10.1016/j.fluid.2009.09.013).
± gives the expanded uncertainty stated by the source.

Columns and labels:
[1] = Molar enthalpy of transition or fusion; conditions: Metastable crystal; DSC
[2] = Crystal; DTA

Molar enthalpy of transition or fusion [1]: 15.8 ± 0.43 kcal/mol
Normal melting temperature [2]: 112.60 ± 0.5 °C
SMILES: CC(C)(C)c1cc(CCC(=O)OCC(COC(=O)CCc2cc(C(C)(C)C)c(O)c(C(C)(C)C)c2)(COC(=O)CCc2cc(C(C)(C)C)c(O)c(C(C)(C)C)c2)COC(=O)CCc2cc(C(C)(C)C)c(O)c(C(C)(C)C)c2)cc(C(C)(C)C)c1O
